{
  "source": "patent US10561712B2",
  "about": "“Treatment of cancer and inhibition of metastasis using hemoglobin beta subunit” (UNIVERSITY OF MARYLAND, BALTIMORE, priority 2014, dated 2020)",
  "key": {"[1]": {"system": "MicroNB cells inoculated to the adrenal gland", "assay": "Orthotopic MicroNB neuroblastoma model, intranasal Metox versus scrambled-Metox (Example 8)", "assay_type": "in vivo, athymic nude mice", "details": "intranasal 1 mg/kg once a week for 8 weeks", "description": "(§1) An orthotopic inoculation to the adrenal gland of athymic nude mice was performed with either 50 μl of PBSX1 supplemented with 5% BSA, or with 1×10^6 MicroNB cells (generated as described previously (Edry Botzer et al., 2011)) suspended in 50 μl of PBSX1 supplemented with 5% BSA. The intra-adrenal inoculation was performed as detailed here (Nevo et al., 2008). In short, anesthesia was induced by ketamine (100 mg/kg body weight) and 2% xylazine (10 mg/kg body weight) administered intraperitoneally. Tumor cells (1×10^6/50 μl) or PBSX1 5% BSA (50 μl) were injected orthotopically into the left adrenal gland of nude mice.\n(§2) The development of local tumors in the adrenal gland was monitored and measured weekly with an external digital caliper. The tumor volume in mm^3 was calculated by the ellipsoid volume calculation formula: Volume=[…] (Tomayko and Reynolds, 1989). At the end of the experiments, local adrenal tumors were weighed.\n(§3) For examining the presence of micrometastatic cells in the lungs and bone marrow of mice, organs were harvested at the end of the experiment, and immediately snap frozen in dry ice. RNA was isolated from frozen tissues and used for the generation of first-strand cDNA using an M-MLV Reverse Transcriptase (See below, “RNA preparation and Reverse Transcription Polymerase Chain Reaction”). Quantification of human cells in mouse organs was determined by quantitative real-time PCR (qRT-PCR) assays.\n(§4) Mice were orthotopically inoculated with MicroNB cells to the adrenal gland to generate local adrenal tumors and lung and bone marrow micrometastasis (see “Orthotopic inoculation of tumor cells”). Fourteen days post tumor cell inoculation mice were treated either intravenously or intranasally with 1 mg/kg (0.02 mg/mouse) of the short inhibitory human HBB peptide, Metox, once a week for 8 weeks.\n(§5) For intranasal administration of Metox, the lyophilized peptide was dissolved prior to each administration in Dimethyl Sulfoxide (DMSO) (Sigma-Aldrich) to a concentration of 0.013 mg/μl, and then diluted in sterile PBSX1 to a concentration of 0.4 μg/μl. The dissolved peptide was filtered (0.2 μm) and mice were forced to inhale 50 μl of Metox (0.02 mg/mouse). Control group was forced to inhale 50 μl of a control scrambled peptide, scrambled-Metox (see “Solid-phase synthesis of Metox and scrambled-Metox peptides”).\nIn an experiment similar to that described in Example 7, athymic nude mice were orthotopically inoculated with MicroNB cells to the adrenal gland. […] Mice were monitored for tumor volume on a weekly basis."}, "[2]": {"system": "MicroNB cells inoculated to the adrenal gland", "assay": "Orthotopic MicroNB neuroblastoma model, HBB11p i.v. or inhaled versus PBS (Example 7)", "assay_type": "in vivo, athymic nude mice", "details": "for size of local tumors versus PBS-treated mice: FIG. 7B, 7C", "description": "as §1, §2, §3, §4, §5\nTwenty four mice were orthotopically inoculated to the adrenal gland with MicroNB cells. Two weeks post inoculation, mice were either intravenously (IV) injected with HBB11p or PBS, or forced to inhale a droplet of soluble HBB11p, once a week for 8 weeks (FIG. 7A). Mice were monitored weekly for tumor volume. At the end of the experiment, local tumors were weighed and organs were harvested and examined for human neuroblastoma cells and for HBB2 expression using real time PCR (FIG. 7A)."}, "[3]": {"system": "MicroNB cells (human neuroblastoma lung micrometastatic variant, MHH-NB11)", "assay": "MTS-based viability assay, MicroNB cells", "assay_type": "cell-based", "details": "72 hr incubation, versus control media", "text": "(§6) The human neuroblastoma lung micrometastatic (MicroNB) and macrometastatic (MacroNB) variants were generated using a mouse model for human neuroblastoma metastasis (Nevo et al., 2008) from the parental cell lines MHH-NB11 (Pietsch et al., 1988) and SH-SY5Y (Biedler et al., 1978) as detailed here (Edry Botzer et al., 2011), and were maintained in culture as previously described (Nevo et al., 2008). The MicroNB and MacroNB variants were previously designated DisNB and MetNB, respectively (Edry Botzer et al., 2011). Authentication of MicroNB and MacroNB cells was performed by short tandem repeat analysis of DNA using the Type-it Microsatellite PCR Kit (Qiagen, Valencia, Calif.), for the genes published by the American Type Culture Collection (ATCC) (Manassas, Va.). The parental cell line MHH-NB11 was kindly provided by Dr. T. Pietsch (Department of Neuropathology, University of Bonn Medical Center, Bonn, Germany).\n(§7) Neuroblastoma cells were seeded (3×10^4 per well) in a 96-well flat-bottomed tissue culture plate. After an incubation of 24 hr, cells were washed and incubated with the relevant factors (detailed in the following sections) diluted in starvation medium (RPMI-1640 containing 5% bovine serum albumin (BSA); Biological Industries, Kibbutz Beit Haemek, Israel; Sigma-Aldrich). Cell viability under normal conditions (starvation medium containing BSA) or after incubation with the relevant factors was monitored after 72 hr using an XTT (XTT cell proliferation kit; Biological Industries) or MTS-based (CellTiter 96® AQueous One Solution Cell Proliferation Assay; Promega) viability assays according to manufacturer instructions. Cells were also counted using the trypan-blue exclusion assay to verify the results obtained by XTT and MTS-based viability assays.\nCircular dichroism analysis of human hemoglobin (HB), hemoglobin subunit alpha (HBA) and subunit beta (HBB) indicated a helical structure for all three proteins (FIG. 3C). […] Neuroblastoma cells were seeded (3×10^4 per well) in a 96 well flat-bottomed tissue culture plate. After 24 hr of incubation cells were washed and incubated with human HBB dissolved in starvation medium (RPMI 5% BSA) to the indicated concentrations. Cell viability under normal conditions (starvation medium) or after incubation with human HBB was monitored after an incubation of 72 hr using an MTS-based viability assay (CellTiter 96® AQueous One Solution Cell Proliferation Assay, Promega) according to the manufacturer instructions. Data are means of three independent experiments±SD. Significance was evaluated using Student's t-test for each variant incubated with human HBB compared to incubation with control media (con)."}, "[4]": {"system": "MacroNB cells (human neuroblastoma lung macrometastatic variant)", "assay": "MTS-based viability assay, MacroNB cells", "assay_type": "cell-based", "details": "72 hr incubation, versus control media", "text": "as §6\nas §7, with “After an incubation of 24 hr, cells were washed and incubated with the relevant factors (detailed in the following sections) diluted in starvation medium (RPMI-1640 containing 5% bovine serum albumin (BSA); Biological Industries, Kibbutz Beit Haemek, Israel; Sigma-Aldrich).” left out\nCircular dichroism analysis of human hemoglobin (HB), hemoglobin subunit alpha (HBA) and subunit beta (HBB) indicated a helical structure for all three proteins (FIG. 3C). […] Cell viability under normal conditions (starvation medium) or after incubation with human HBB was monitored after an incubation of 72 hr using an MTS-based viability assay (CellTiter 96® AQueous One Solution Cell Proliferation Assay, Promega) according to the manufacturer instructions. […] Significance was evaluated using Student's t-test for each variant incubated with human HBB compared to incubation with control media (con)."}, "neuroblastoma cells": {"system": "neuroblastoma cells", "assay": "Viability of neuroblastoma cells with N- and C-terminal CNBr fragments of HBB", "assay_type": "cell-based, human", "details": "MTS-based proliferation assay and trypan blue exclusion; 72 hr; FIG. 5B", "description": "as §7\nHuman HBB was incubated at a concentration of 2 mg/ml with 50 mg/ml CNBr (Sigma-Aldrich) in 5% trifluoroacetic acid (Halocarbon). […] After 72 hr of incubation cell viability was assessed as described below.\nIn order to pin-point the active fragment of the human HBB protein, the protein was cleaved to two fragments using cyanogen bromide (CNBr). […] Significance was evaluated using Student's t-test for each variant incubated with N- or C-terminal fragments of human HBB compared to incubation with control media (not shown)."}, "[5]": {"system": "MCF-7 breast carcinoma cells", "assay": "Viability of cancerous cell lines, MCF-7", "details": "MTS-based assay; FIG. 3E", "description": "as §7\nWhen incubated with the highest amount of HBB (100 μg), the viability of the following cell lines was inhibited: the breast cancer cell lines T47D and MCF-7, the prostate cancer cell line 22RVi, the cervical cancer cell line Hela, and the melanoma cell lines RALL and RKTJ."}, "[6]": {"details": "HBB11p once a week for 8 weeks, data not shown"}},
  "data": [
    {"substance": "ENFRLLGNVLVCVLA (listed as Homo sapiens) [HBB11p]", "values": [
      {"measurement": "weight of local tumors of scrambled-Metox treated mice relative to Metox treated mice", "setting": "[1]; 70 days post inoculation, FIG. 8C, 8D", "result": "significantly higher"},
      {"measurement": "metastatic load of MicroNB cells in lungs versus scrambled-Metox", "setting": "[1]; Real-Time PCR, FIG. 8E", "result": "significantly lower"},
      {"measurement": "metastatic load of MicroNB cells in bone marrow versus scrambled-Metox", "setting": "[1]; Real-Time PCR, FIG. 8F", "result": "significantly lower"},
      {"measurement": "local tumor volume, Metox versus scrambled-Metox treated mice", "setting": "[1]; twenty days after inoculation, more significant with time, FIG. 8B", "result": "a difference was apparent"},
      {"measurement": "bone marrow metastasis versus PBS-treated mice", "setting": "[2]; [6]", "result": "significantly inhibited as well"},
      {"measurement": "liver metastasis versus PBS-treated mice", "setting": "[2]; [6]", "result": "significantly inhibited as well"},
      {"measurement": "spleen metastasis versus PBS-treated mice", "setting": "[2]; [6]", "result": "significantly inhibited as well"},
      {"measurement": "lung metastasis versus PBS-treated mice", "setting": "[2]; HBB11p once a week for 8 weeks, real time PCR, FIG. 7D", "result": "significantly inhibited"},
      {"measurement": "size of local tumors versus PBS-treated mice", "setting": "[2]; inhaled droplet of HBB11p once a week for 8 weeks", "result": "significantly smaller"},
      {"measurement": "size of local tumors versus PBS-treated mice", "setting": "[2]; intravenous HBB11p once a week for 8 weeks", "result": "significantly smaller"},
      {"measurement": "influence on viability of MicroNB cells (in words)", "setting": "[3]; listed as Peptide number 11", "result": "significantly inhibited the viability"},
      {"measurement": "influence on viability of MicroNB cells (in words)", "setting": "[3]; listed as peptide 11", "result": "even greater than that caused by HBB"}
    ]},
    {"substance": "HBA: alpha subunit of human hemoglobin, HPLC-separated from native human hemoglobin [reference compound]", "values": [
      {"measurement": "influence on viability of MacroNB cells (in words)", "setting": "[4]", "result": "did not influence cell viability"},
      {"measurement": "influence on viability of MicroNB cells (in words)", "setting": "[3]", "result": "did not influence cell viability"}
    ]},
    {"substance": "N-terminal fragment: N-terminal fragment of human HBB from CNBr cleavage, SEQ ID NO:3", "values": [
      {"measurement": "influence on neuroblastoma cell viability (in words)", "setting": "neuroblastoma cells", "result": "exhibited an inhibitory effect however to a lesser extent"}
    ]},
    {"substance": "C-terminal fragment: 91 amino acid C-terminal fragment of human HBB from CNBr cleavage, SEQ ID NO:4", "values": [
      {"measurement": "influence on neuroblastoma cell viability (in words)", "setting": "neuroblastoma cells", "result": "responsible for the inhibitory activity"}
    ]},
    {"substance": "HBB2: beta 2 subunit of mouse hemoglobin, SEQ ID NO:1; HPLC peak no. 4 of mouse lung-derived factors", "values": [
      {"measurement": "influence on viability of MacroNB cells (in words)", "setting": "[4]", "result": "inhibited cell viability"},
      {"measurement": "influence on viability of MicroNB cells (in words)", "setting": "[3]", "result": "inhibited cell viability"}
    ]},
    {"substance": "whole human hemoglobin protein: native human hemoglobin (Sigma), whole protein [reference compound]", "values": [
      {"measurement": "influence on viability of MCF-7 breast carcinoma cells (in words)", "setting": "[5]", "result": "inhibited cell viability as well but not to the same extent as HBB"}
    ]}
  ]
}
